Tests used:
CDK7 = target: T1, CDK7 (Homo sapiens, UniProt P50613); assay: CDK7 enzyme inhibition test; assay type: biochemical; settings: [γ-33P]ATP, MBP substrate, 60 min preincubation at 25°C; Ki=IC50/(1+S/Km); read-out: Ki value of CDK7 inhibitory activity
T1 construct: purchased Carna Biosciences, Inc. 04-108
Procedure: The preparation of a buffer solution was performed by mixing a N-2-hydroxyethylpiperazine-N′-2-ethanesulfonic acid buffer solution (HEPES buffer solution) (pH 7.4), dithiothreitol (DTT), Triton X-100, and magnesium chloride (MgCl2). A 500 μM [γ-^33P]ATP solution was used by diluting a 10 mM ATP solution and a commercially available [γ-^33P]ATP solution (manufactured by PerkinElmer, Inc., Code No. NEG-302H) with the buffer solution. A CDK7 solution was used by diluting commercially available CDK7 (manufactured by Carna Biosciences, Inc., Catalog No. 04-108) with the buffer solution. A substrate solution was used by diluting myelin basic protein (MBP) with the buffer solution. As for the preparation of a reaction solution, the buffer solution, the CDK7 solution, and the substrate solution were mixed at 4° C. to obtain a reaction solution.
CDK7 enzyme reaction was performed by adding 5 μL of a test compound solution prepared with 10% DMSO/90% injectable distilled water, and 40 μL of the reaction solution to a 1.5 mL microtube at 4° C. and preincubating the microtube at 25° C. for 60 minutes in a water bath incubator. Subsequently, reaction was performed at 30° C. for 20 minutes by adding 5 μL of the 500 μM [γ-^33P]ATP solution. After the reaction, a 10% aqueous trichloroacetic acid (TCA) solution was added to each microtube while cooled to 4° C., and mixed in a vortex mixer to terminate the reaction. The resultant was left standing at 4° C. for 10 minutes and then centrifuged, and the supernatant was discarded. Next, a 2% aqueous trichloroacetic acid (TCA) solution was added thereto, mixed in a vortex mixer, and then centrifuged, and the supernatant was discarded. This washing operation was performed twice. After the washing, precipitates were dissolved in a 1 N aqueous sodium hydroxide (NaOH) solution, and the energy quantity (radioactivity) of the reaction product was measured with a liquid scintillation counter.
The calculation of the inhibitory activity of the test compound against CDK7 was performed as a test compound concentration inhibiting 50% of the amount of ^33P bound to MBP (IC50 value) by using EXSUS (version 8.1.0, manufactured by CAC Exicare Corp.).
The calculation of a Ki value was performed according to the following calculation expression wherein S represents the concentration of ATP contained in the reaction solution, and Km represents a Michaelis-Menten constant: Ki=IC50/(1+S/Km)

[1] = test system: human large intestine cancer cell line (HCT-116); assay: Human large intestine cancer (HCT-116) cell growth inhibition test; assay type: cell-based; settings: HCT-116, 72 h, culture for 3 days, sulforhodamine B, read-out: GI50 value, HCT-116 cell growth inhibition
Procedure: The measurement of a human large intestine cancer cell growth inhibitory effect was carried out by modifying the method of Simak et al. (Cancer Research, 69, 6208 (2009)).
A human large intestine cancer cell line (HCT-116, obtained from DS Pharma Biomedical Co., Ltd.) was cultured in a McCoy's 5A medium (manufactured by Thermo Fisher Scientific, Inc.) containing 10% fetal bovine serum (FBS) (manufactured by Thermo Fisher Scientific, Inc.) and 1% penicillin/streptomycin/amphotericin B (manufactured by Thermo Fisher Scientific, Inc.) and inoculated at 0.5 to 2.0×10^3 cells/well in a 96-well plate. After overnight culture in a carbon dioxide incubator, the medium was replaced with a fresh medium on the next day, and a test compound dissolved in DMSO (final DMSO concentration: 0.1%) was added thereto and left standing in a carbon dioxide incubator. After culture for 3 days, the absorbance thereof was measured by using In Vitro Toxicology Assay Kit Sulforhodamine B based (manufactured by Sigma-Aldrich Co. LLC.).
The rate of inhibition of cell growth at each concentration was calculated from the test compound concentration and the absorbance of sulforhodamine B, and the concentration of the test compound necessary for inhibiting 50% of cell growth (GI50 value) was calculated by using EXSUS (version 8.1.0, manufactured by CAC Exicare Corp.).

T1 sequence (P50613 whole entry): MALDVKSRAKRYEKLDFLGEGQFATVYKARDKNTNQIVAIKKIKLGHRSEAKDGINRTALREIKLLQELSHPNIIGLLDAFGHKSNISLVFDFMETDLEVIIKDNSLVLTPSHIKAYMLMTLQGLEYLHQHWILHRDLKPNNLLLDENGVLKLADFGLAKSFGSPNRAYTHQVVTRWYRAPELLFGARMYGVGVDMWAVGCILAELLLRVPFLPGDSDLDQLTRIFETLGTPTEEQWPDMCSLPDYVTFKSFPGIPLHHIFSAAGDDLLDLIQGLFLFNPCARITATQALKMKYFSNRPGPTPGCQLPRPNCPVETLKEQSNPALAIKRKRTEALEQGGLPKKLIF
T1 sequence (P51946 whole entry partner): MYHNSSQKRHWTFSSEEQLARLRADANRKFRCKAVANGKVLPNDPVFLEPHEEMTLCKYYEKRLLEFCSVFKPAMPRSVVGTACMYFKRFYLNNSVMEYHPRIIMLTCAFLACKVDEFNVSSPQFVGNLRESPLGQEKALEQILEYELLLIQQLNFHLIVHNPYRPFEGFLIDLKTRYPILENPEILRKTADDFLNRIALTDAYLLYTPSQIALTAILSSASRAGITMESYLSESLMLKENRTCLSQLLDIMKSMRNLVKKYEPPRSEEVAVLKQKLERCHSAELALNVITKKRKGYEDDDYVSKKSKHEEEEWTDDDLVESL
T1 sequence (P51948 whole entry partner): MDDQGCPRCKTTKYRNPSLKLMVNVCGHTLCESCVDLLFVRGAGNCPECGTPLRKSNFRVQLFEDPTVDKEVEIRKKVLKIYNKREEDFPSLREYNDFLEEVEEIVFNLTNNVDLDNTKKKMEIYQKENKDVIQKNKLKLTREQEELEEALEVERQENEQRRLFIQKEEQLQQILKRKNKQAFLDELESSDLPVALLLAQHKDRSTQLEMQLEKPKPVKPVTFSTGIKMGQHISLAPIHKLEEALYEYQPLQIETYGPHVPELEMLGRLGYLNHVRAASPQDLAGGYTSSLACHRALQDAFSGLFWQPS

CN(C(=O)N1Cc2c(NC(=O)C3([Si](C)(C)C)CCC3)n[nH]c2C1(C)C)c1ccccc1 [I-965, N,6,6-Trimethyl-N-phenyl-3-[1-(trimethylsilyl)cyclobutanecarboxamido]-4,6-dihydropyrrolo[3,4-c]pyrazole-5(1H)-carboxamide]
Ki (CDK7): ≤ 50 nM

Cc1cccc(Br)c1NC(=O)N1Cc2c(NC(=O)C(C)(C)[Si](C)(C)C)n[nH]c2C1(C)C [II-290, N-(2-Bromo-6-methylphenyl)-6,6-dimethyl-3-[2-methyl-2-(trimethylsilyl)propanamido]-4,6-dihydropyrrolo[3,4-c]pyrazole-5(1H)-carboxamide]
Ki (CDK7): ≤ 50 nM

Cc1cccc(Br)c1NC(=O)N1Cc2c(NC(=O)C3([Si](C)(C)C)CC3)n[nH]c2C1(C)C [III-299, N-(2-Bromo-6-methylphenyl)-6,6-dimethyl-3-[1-(trimethylsilyl)cyclopropanecarboxamido]-4,6-dihydropyrrolo[3,4-c]pyrazole-5(1H)-carboxamide]
GI50 [1]: ≤ 100 nM
Ki (CDK7): ≤ 50 nM

CC1(C)c2[nH]nc(NC(=O)C3([Si](C)(C)C)CCC3)c2CN1C(=O)Nc1ccc(F)cc1 [IV-7, N-(4-Fluorophenyl)-6,6-dimethyl-3-[1-(trimethylsilyl)cyclobutanecarboxamido]-4,6-dihydropyrrolo[3,4-c]pyrazole-5(1H)-carboxamide]
GI50 [1]: ≤ 100 nM
Ki (CDK7): ≤ 50 nM

Cc1cccc(NC(=O)N2Cc3c(NC(=O)C4([Si](C)(C)C)CCC4)n[nH]c3C2(C)C)c1 [IV-23, 6,6-Dimethyl-N-(m-tolyl)-3-[1-(trimethylsilyl)cyclobutanecarboxamido]-4,6-dihydropyrrolo[3,4-c]pyrazole-5(1H)-carboxamide]
GI50 [1]: ≤ 100 nM
Ki (CDK7): ≤ 50 nM

CC1(C)c2[nH]nc(NC(=O)C3([Si](C)(C)C)CCC3)c2CN1C(=O)Nc1ccccc1C(F)(F)F [IV-51, 6,6-Dimethyl-N-[2-(trifluoromethyl)phenyl]-3-[1-(trimethylsilyl)cyclobutanecarboxamido]-4,6-dihydropyrrolo[3,4-c]pyrazole-5 (1H)-carboxamide]
GI50 [1]: ≤ 100 nM
Ki (CDK7): ≤ 50 nM

CC1(C)c2[nH]nc(NC(=O)C3([Si](C)(C)C)CCC3)c2CN1C(=O)Nc1ccccc1C#N [IV-63, N-(2-Cyanophenyl)-6,6-dimethyl-3-[1-(trimethylsilyl)cyclobutanecarboxamido]-4,6-dihydropyrrolo[3,4-c]pyrazole-5(1H)-carboxamide]
GI50 [1]: ≤ 100 nM
Ki (CDK7): ≤ 50 nM

COc1ccc(NC(=O)N2Cc3c(NC(=O)C4([Si](C)(C)C)CCC4)n[nH]c3C2(C)C)cc1 [IV-79, N-(4-Methoxyphenyl)-6,6-dimethyl-3-[1-(trimethylsilyl)cyclobutanecarboxamido]-4,6-dihydropyrrolo[3,4-c]pyrazole-5(1H)-carboxamide]
GI50 [1]: ≤ 100 nM
Ki (CDK7): ≤ 50 nM

CC1(C)c2[nH]nc(NC(=O)C3([Si](C)(C)C)CCC3)c2CN1C(=O)Nc1ccccc1OC(F)(F)F [IV-93, 6,6-Dimethyl-N-[2-(trifluoromethoxy)phenyl]-3-[1-(trimethylsilyl)cyclobutanecarboxamido]-4,6-dihydropyrrolo[3,4-c]pyrazole-5(1H)-carboxamide]
GI50 [1]: ≤ 100 nM
Ki (CDK7): ≤ 50 nM

CC1(C)c2[nH]nc(NC(=O)C3([Si](C)(C)C)CCC3)c2CN1C(=O)Nc1cccc(F)c1F [IV-99, N-(2,3-Difluorophenyl)-6,6-dimethyl-3-[1-(trimethylsilyl)cyclobutanecarboxamido]-4,6-dihydropyrrolo[3,4-c]pyrazole-5(1H)-carboxamide]
GI50 [1]: ≤ 100 nM
Ki (CDK7): ≤ 50 nM

CC1(C)c2[nH]nc(NC(=O)C3([Si](C)(C)C)CCC3)c2CN1C(=O)Nc1cccnc1 [IV-1019, 6,6-Dimethyl-N-(pyridin-3-yl)-3-[1-(trimethylsilyl)cyclobutanecarboxamido]-4,6-dihydropyrrolo[3,4-c]pyrazole-5(1H)-carboxamide]
Ki (CDK7): ≤ 50 nM
